Assay results from patent publication US20200255828A1, “METHODS AND COMPOSITIONS FOR ALTERING FUNCTION AND STRUCTURE OF CHROMATIN LOOPS AND/OR DOMAINS” (THE BROAD INSTITUTE, INC., priority 2017, published 2020).
Where “and” joins values, the source holds several entries; their conditions need not be identical. Equal values may be shown once.

Columns and labels:
HCT-116 RAD21-mAC cells [1] = test: In situ Hi-C: APA for cohesin-independent links between superenhancers; format: cell-based, human
Source text: Applicants first annotated loops in our maps for auxin-treated RAD21-mAC cells using default HiCCUPS parameters for 5, 10, and 25 kb resolutions (Durand et al., 2016b; Rao et al., 2014) with the additional requirement that the peak pixel show […] 4.5-fold enrichment over local expected (in order to remove as many false positives as possible due to rearrangements and assembly issues, see above). Using this procedure, Applicants annotated 81 loops in treated RAD21-mAC cells. […] The false discovery rate for HiCCUPS is much higher in treated cells because the number of true positives is dramatically lower. […] Applicants also noticed that the anchors involved in these 15 loops were often forming long-range loops at distances of tens of megabases and hundreds of megabases. Applicants reasoned that HiCCUPS using default parameters for loop detection was missing many of these extremely long-range loops because of the extra stringency of the HiCCUPS lambda chunking procedure for multiple hypothesis testing for pixels with low counts (i.e. pixels far off the diagonal).
More specifically, Applicants annotated loops by running HiCCUPS at 50 and 100 kb resolutions with the following parameters: p=2,1; w=4,2; fdr=10%, 10%. Applicants additionally filtered loops that were within 5 Mb of the diagonal, had less than a 2-fold observed/expected for any of the local expected, and had fewer than 3 pixels clustered into the peak pixels (see section VI.a.5 of Rao et al., 2014). This annotation yielded 88 loops. […] Combining these 46 loops with the 15 loops annotated with high resolution HiCCUPS, Applicants obtained a final curated list of 61 intrachromosomal cohesin-independent loops.
To annotate these interchromosomal links between pairs of cohesin-independent loop anchors, Applicants used HiCCUPS to calculate local enrichments at 100 kb resolution for all possible interchromosomal pairs of cohesin-independent loop anchors. Applicants then identified enriched focal interchromosomal interactions by filtering for links that were enriched at least 5.5-fold over local background (empirically chosen to ensure a <10% false discovery rate). Using this procedure, Applicants identified 203 interchromosomal cohesin-independent links. This likely underestimates the true number of interchromosomal cohesin-independent links, as evidenced by FIG. SA.
Applicants analyzed the change in strength of cohesin-independent links after auxin treatment by using APA at 100 kb resolution.
Applicants also analyzed induction of cohesin-independent links across an auxin treatment and withdrawal time course. This analysis was performed as above with the cohesin-associated loops and loop domains, but at 100 kb resolution instead of 10 kb resolution and for both our 61 intrachromosomal links and our 203 interchromosomal links. […] Similar results were seen upon performing the time course APA at 100 kb resolution using all intrachromosomal pairs of the 47 superenhancer overlapping anchors in the 88-loop automated list from above (FIG. 11E).

HCT-116 RAD21-mAC cells [2] = test: In situ Hi-C: loops and loop domains (HiCCUPS, APA), auxin treatment and withdrawal time course; format: cell-based, human
Source text: To examine loop domains, Applicants used in situ Hi-C(Rao et al., 2014), which combines DNA-DNA proximity ligation and high-throughput sequencing to create maps showing the frequency of physical contact between all pairs of loci across the genome. Loop domains are manifest in Hi-C maps as a bright “peak” pixel (indicating the link between the two loop anchors) at the corner of a bright square (indicating the presence of a contact domain).
To see if these changes were reversible, Applicants performed a time-course analysis in which untreated cells were exposed to auxin for six hours, after which auxin was withdrawn (FIG. 2B, FIG. 9B). Low resolution Hi-C was performed immediately before treatment, as well as at a series of time points during treatment (at 20, 40, 60, 240, and 360 minutes) and after withdrawal (at 20, 40, 60, 180, 360, 1080, and 1440 minutes). To assess whether the anchors of the loop domains seen in the pre-treatment data continued to be linked (that is, co-located in space) subsequently, Applicants used a method called Aggregate Peak Analysis (APA) (Durand et al., 2016b), which superimposes the signals from a set of peak pixels, thus allowing Applicants to observe an aggregate signal even in sparse datasets where individual signals cannot be resolved (FIG. 2B). The APA signal was initially strong, but was gone by 40 minutes after treatment, and remained absent throughout the rest of the treatment period (FIG. 2B, 9B). The disappearance of the loop-domain links closely mirrored the depletion of cohesin levels in the samples during the treatment period, as ascertained by measuring mClover fluorescence (FIG. 8).
For our time course experiments, cells were treated with 500 uM IAA and crosslinked with 1% formaldehyde directly in wells of a 6-well plate at various time points after treatment (20, 40, 60, 240, 360 minutes). For the auxin withdrawal experiments, after 6 hours treatment with 500 um IAA, the cells were trypsinized, washed twice in fresh media and replated in 6-well plates in fresh media. They were then crosslinked with 1% formaldehyde directly in the 6-well plates at various time points after auxin withdrawal (20, 40, 60, 180, 360, 1080, 1440 minutes).
Applicants generated 69 in situ Hi-C libraries using the MboI restriction enzyme following the protocol described in (Rao et al., 2014) without modifications. In brief, the in situ Hi-C protocol involves crosslinking cells with formaldehyde, permeabilizing them with nuclei intact, digesting DNA with a suitable 4-cutter restriction enzyme, filling the 5′-overhangs while incorporating a biotinylated nucleotide, ligating the resulting blunt-end fragments, shearing the DNA, capturing the biotinylated ligation junctions with streptavidin beads, and analyzing the resulting fragments with paired-end sequencing.
Applicants generated 7 libraries each for the main maps (untreated HCT-116 RAD21-mAC cells and HCT-116 RAD21-mAC cells treated for 6 hours with IAA) comprised of two sets of biological replicates each (three and four technical replicate libraries per biological replicate). In addition, Applicants generated four technical replicate libraries each for untreated and treated HCT-116 RAD21-mAC cells after cell synchronization and arrest. Applicants also generated an additional 5 libraries from untreated HCT-116 RAD21-mAC cells and 4 libraries from HCT-116 RAD21-mAC cells treated for 6 hours with IAA (two additional biological replicates each) that were not included in our main maps, but were used for analysis of higher-order contacts (see below). Applicants generated four libraries (two biological replicates) for each of our loop-resolution maps along the auxin withdrawal time course (20, 40, 60 and 180 mins after auxin withdrawal). Finally, Applicants generated two technical replicate libraries per time point of our auxin treatment and withdrawal time course. […]

For O=C(O)Cc1c[nH]c2ccccc12 [auxin, indole-3-acetic acid], the “strengthening of cohesin-independent links after auxin treatment” value (HCT-116 RAD21-mAC cells [1]; APA at 100 kb resolution, intra and interchromosomal) was roughly 2 fold, the “intrachromosomal APA score of cohesin-independent links, treated” value (HCT-116 RAD21-mAC cells [1]; automatedly generated list, untreated 1.69) was 2.75 and the “interchromosomal APA score of cohesin-independent links, treated” value (HCT-116 RAD21-mAC cells [1]; automatedly generated list, untreated 2.29) was 3.64. The “intrachromosomal APA score of cohesin-independent links, treated” value (HCT-116 RAD21-mAC cells [1]; manually curated list of 61 links, untreated 2.32) was 4.02, the “interchromosomal APA score of cohesin-independent links, treated” value (HCT-116 RAD21-mAC cells [1]; manually curated list of 203 links, untreated 3.02) was 7.02 and the “APA score for all loops after auxin treatment” value (HCT-116 RAD21-mAC cells [2]; 10 kb resolution, >300 kb, untreated 2.09) was 0.78. The “APA score for loop domains after auxin treatment” value (HCT-116 RAD21-mAC cells [2]; 10 kb resolution, >300 kb, untreated 2.10) was 0.78, the “number of loop domains found after auxin treatment” value (HCT-116 RAD21-mAC cells [2]; 2,140 in untreated cells, all 9 false positives) was 9 and the “time after auxin withdrawal by which APA signal largely recovered” value (HCT-116 RAD21-mAC cells [2]; after 6 hours auxin) was no more than 1 h. For the same compound, the “time after auxin withdrawal with strong loop domain signal” value (HCT-116 RAD21-mAC cells [2]; after 6 hours auxin) was no more than 60 min, the “number of loops annotated in auxin-treated cells” value (HCT-116 RAD21-mAC cells [2]; default HiCCUPS 5, 10, 25 kb, 3,170 in untreated) was 81 and the “loops lost after auxin treatment” value (HCT-116 RAD21-mAC cells [2]; default HiCCUPS parameters) was > 97% and ~98%. For the same compound, the “time after auxin withdrawal at which reformation of fast loop domains is apparent” value (HCT-116 RAD21-mAC cells [2]; fast loop domains) was 20 to 40 min and the “time after auxin withdrawal until reformation of slow loop domains is seen” value (HCT-116 RAD21-mAC cells [2]; slow loop domains) was 3 h.
